Test results published in patent US7906491B2 (Univisitair Medisch Centrum Utrecht, priority 2002, dated 2011).

Experiments:
[1] = tested on: PKAI; assay: Relative affinity for PKAI (cAMP = 1), in vitro; format: binding; details: relative to cAMP = 1
[2] = tested on: PKAII; assay: Relative affinity for PKAII (cAMP = 1), in vitro; format: binding; details: relative to cAMP = 1
[3] = molecular target: T1, Epac (Homo sapiens, UniProt O95398); assay: Relative affinity for Epac (cAMP = 1), in vitro; format: binding; details: relative to cAMP = 1
T1 sequence (O95398 1-923): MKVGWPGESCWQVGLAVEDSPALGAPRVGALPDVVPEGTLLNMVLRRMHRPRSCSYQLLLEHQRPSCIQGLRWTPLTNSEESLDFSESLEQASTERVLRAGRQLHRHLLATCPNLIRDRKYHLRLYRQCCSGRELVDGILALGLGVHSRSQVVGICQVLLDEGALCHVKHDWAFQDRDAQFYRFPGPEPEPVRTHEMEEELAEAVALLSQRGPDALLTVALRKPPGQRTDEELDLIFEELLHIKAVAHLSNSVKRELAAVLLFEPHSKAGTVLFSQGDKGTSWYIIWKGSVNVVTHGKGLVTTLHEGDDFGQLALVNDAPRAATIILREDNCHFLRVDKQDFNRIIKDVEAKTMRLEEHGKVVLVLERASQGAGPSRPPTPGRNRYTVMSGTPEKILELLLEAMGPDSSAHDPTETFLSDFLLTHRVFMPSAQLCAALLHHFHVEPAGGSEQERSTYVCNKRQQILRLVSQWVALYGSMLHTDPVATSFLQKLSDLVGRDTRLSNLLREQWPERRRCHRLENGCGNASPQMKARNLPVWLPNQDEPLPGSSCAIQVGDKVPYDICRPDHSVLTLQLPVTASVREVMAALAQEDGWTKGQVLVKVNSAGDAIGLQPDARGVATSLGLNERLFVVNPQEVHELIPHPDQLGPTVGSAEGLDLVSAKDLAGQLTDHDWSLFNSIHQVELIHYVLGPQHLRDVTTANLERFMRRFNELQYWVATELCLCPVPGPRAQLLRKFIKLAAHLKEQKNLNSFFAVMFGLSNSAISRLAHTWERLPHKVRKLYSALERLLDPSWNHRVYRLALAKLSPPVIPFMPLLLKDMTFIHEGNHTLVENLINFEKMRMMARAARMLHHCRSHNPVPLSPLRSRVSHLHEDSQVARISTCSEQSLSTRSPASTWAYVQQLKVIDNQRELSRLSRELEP

[4] = molecular target: T2, Epac1-ΔDEP1 (Homo sapiens, UniProt O95398); assay: In vitro GEF assay: Epac activity in the exchange reaction towards Rap (mantGDP-loaded Rap1b); format: biochemical; details: in vitro in the exchange reaction towards Rap; note: key: +++: activity comparible to I-007; ++: activity between I-007 and cAMP; +: activity comparible to cAMP; ±: activity less than cAMP
T2 sequence (O95398 191-923 limits assumed): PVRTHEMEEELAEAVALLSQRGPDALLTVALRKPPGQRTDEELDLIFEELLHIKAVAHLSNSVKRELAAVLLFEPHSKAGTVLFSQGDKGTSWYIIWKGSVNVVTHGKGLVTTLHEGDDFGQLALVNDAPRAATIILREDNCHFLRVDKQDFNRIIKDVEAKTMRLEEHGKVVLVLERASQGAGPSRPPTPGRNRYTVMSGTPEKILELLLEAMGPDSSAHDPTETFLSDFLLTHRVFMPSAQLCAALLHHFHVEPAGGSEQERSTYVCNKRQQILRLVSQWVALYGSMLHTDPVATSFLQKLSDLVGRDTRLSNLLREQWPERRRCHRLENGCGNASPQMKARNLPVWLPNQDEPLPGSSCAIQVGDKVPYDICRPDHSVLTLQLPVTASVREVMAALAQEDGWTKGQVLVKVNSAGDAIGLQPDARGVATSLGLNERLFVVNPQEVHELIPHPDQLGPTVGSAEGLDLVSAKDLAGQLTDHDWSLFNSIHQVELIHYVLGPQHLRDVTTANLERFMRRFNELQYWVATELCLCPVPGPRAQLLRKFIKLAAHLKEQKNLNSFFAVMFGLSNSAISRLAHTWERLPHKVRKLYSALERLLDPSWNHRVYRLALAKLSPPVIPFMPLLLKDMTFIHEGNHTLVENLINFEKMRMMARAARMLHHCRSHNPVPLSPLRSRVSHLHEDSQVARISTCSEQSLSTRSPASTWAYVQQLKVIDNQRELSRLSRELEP
Description: In vitro GEF assays were performed as described (3,16). […] Buffer conditions were 50 mM Tris pH7.4, 150 mM NaCl, 5% glycerol, 5 mM DTE, 60 μM GTP. Reactions were carried out in 96-well plates and measured in a Cary Eclipse from Varian Inc., using the manufacturers software.

Substance	Relative affinity CAMP = 1 PKAI [1]	Relative affinity CAMP = 1 PKAII [2]	Relative affinity CAMP = 1 Epac [3]	Relative activity of Epac* [4]
8-(2-amino-phenylthio)-2′-O-methyladenosine-3′,5′-cyclic monophosphate [Compound I-107]	0.004	0.0001	1.3	+
8-(4-chloro-phenylthio)-2′-deoxyadenosine-3′,5′-cyclic monophosphate [Compound I-003]	0.001	0.001	0.2	+
8-(4-fluoro-phenylthio)-2′-O-methyladenosine-3′,5′-cyclic monophosphate [Compound I-102]	0.02	0.0004	4.5	+++
8-(4-methoxy-phenylthio)-2′-O-methyladenosine-3′,5′-cyclic monophosphate [Compound I-112]	0.025	0.0006	6.5	+++
8-(4-methyl-cumarinyl-7-thio)-2′-O-methyladenosine-3′,5′-cyclic monophosphate [Compound I-103]	0.03	0.0005	1.8	±
8-(4-nitro-phenylthio)-2′-O-methyladenosine-3′,5′-cyclic monophosphate [Compound I-106]	0.02	0.0002	1.2	++
8-(naphtyl-2-thio)-2′-O-methyladenosine-3′,5′-cyclic monophosphate [Compound I-104]	0.03	0.001	2.3	++
8-benzylthio-2′-O-methyladenosine-3′,5′-cyclic monophosphate [Compound I-108]	0.04	0.0007	1.3	+
8-bromo-2′-O-methyladenosine-3′,5′-cyclic monophosphate [Compound I-006]	0.0015	0.003	0.9	++
8-bromo-2′-deoxyadenosine-3′,5′-cyclic monophosphate [Compound I-002]	0.01	0.00001	0.12	+
8-isopropylthio-2′-O-methyladenosine-3′,5′-cyclic monophosphate [Compound I-113]	0.028	0.0004	0.7	+
8-methylamino-2′-O-methyladenosine-3′,5′-cyclic monophosphate [Compound I-100]	0.0014	0.0001	<0.5	±
8-methylthio-2′-O-methyladenosine-3′,5′-cyclic monophosphate [Compound I-101]	0.012	0.0006	1.3	+
8-n-hexylthio-2′-O-methyladenosine-3′,5′-cyclic monophosphate [Compound I-109]	0.03	0.0008	1.2	++
8-phenylthio-2′-O-methyladenosine-3′,5′-cyclic monophosphate [Compound I-105]	0.02	0.0005	3.6	++
